Experimental data from patent publication US7335814B2, “Transgenic cells expressing glucosyltransferase nucleic acids” (The University of York, priority 2000, dated 2008).

Experiments:
Assay type in all cases: biochemical
recombinant GTase A41 = molecular target: T1, recombinant GTase A41 (Arabidopsis thaliana, UniProt Q5XF20); assay: Specific activity of recombinant GTase producing glucose ester against lignin precursors (HPLC); settings: 5 mM UDPG, 0.2 μg GTase, 200 μl, 20° C., 30 min
T1 construct: made in house; host or cells: E. coli
T1 sequence (Q5XF20 7-490): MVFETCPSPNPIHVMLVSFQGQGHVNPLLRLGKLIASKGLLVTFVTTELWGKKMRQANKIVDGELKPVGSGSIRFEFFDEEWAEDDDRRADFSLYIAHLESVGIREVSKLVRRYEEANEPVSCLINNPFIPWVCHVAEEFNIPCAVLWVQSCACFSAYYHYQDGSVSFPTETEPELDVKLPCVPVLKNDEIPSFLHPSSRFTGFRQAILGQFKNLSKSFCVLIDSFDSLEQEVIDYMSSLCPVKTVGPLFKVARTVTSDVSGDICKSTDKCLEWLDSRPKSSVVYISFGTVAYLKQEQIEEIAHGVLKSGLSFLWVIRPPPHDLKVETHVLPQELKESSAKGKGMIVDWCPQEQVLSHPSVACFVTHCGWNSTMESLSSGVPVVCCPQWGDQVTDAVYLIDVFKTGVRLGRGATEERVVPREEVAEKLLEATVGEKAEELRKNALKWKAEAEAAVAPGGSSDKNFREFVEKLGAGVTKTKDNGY

UGT71C1 = molecular target: T2, UGT71C1 (Arabidopsis thaliana, UniProt O82381); assay: UGT71C1 glucosyltransferase specific activity towards phenolic compounds (reverse-phase HPLC); settings: 1 mM phenolic compound, 5 mM UDP-glucose, 50 mM TRIS-HCl pH 7.0, 30° C., 30 min; mean of three replicates ± standard deviation
T2 construct: GST (N); made in house; host or cells: E. coli
T2 sequence (O82381 1-481): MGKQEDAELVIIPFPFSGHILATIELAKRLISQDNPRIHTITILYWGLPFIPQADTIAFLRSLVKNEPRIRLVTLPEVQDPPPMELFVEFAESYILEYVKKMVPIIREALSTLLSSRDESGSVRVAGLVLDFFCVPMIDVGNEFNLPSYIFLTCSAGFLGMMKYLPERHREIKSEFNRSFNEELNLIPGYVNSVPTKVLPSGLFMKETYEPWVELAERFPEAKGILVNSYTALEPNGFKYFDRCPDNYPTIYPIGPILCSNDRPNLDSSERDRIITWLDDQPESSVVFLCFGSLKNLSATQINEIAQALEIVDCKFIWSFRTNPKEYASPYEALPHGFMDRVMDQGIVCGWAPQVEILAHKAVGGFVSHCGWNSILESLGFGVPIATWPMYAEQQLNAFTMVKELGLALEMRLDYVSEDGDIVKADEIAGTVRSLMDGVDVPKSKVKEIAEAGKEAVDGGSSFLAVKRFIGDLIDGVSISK

recombinant GTase A962 = molecular target: T3, recombinant GTase A962 (Arabidopsis thaliana, UniProt O82382); assay: Specific activity of recombinant GTase producing O-glucosides against lignin precursors (HPLC); settings: 30° C.; ND = not detected
T3 construct: made in house; host or cells: E. coli
T3 sequence (O82382 1-474): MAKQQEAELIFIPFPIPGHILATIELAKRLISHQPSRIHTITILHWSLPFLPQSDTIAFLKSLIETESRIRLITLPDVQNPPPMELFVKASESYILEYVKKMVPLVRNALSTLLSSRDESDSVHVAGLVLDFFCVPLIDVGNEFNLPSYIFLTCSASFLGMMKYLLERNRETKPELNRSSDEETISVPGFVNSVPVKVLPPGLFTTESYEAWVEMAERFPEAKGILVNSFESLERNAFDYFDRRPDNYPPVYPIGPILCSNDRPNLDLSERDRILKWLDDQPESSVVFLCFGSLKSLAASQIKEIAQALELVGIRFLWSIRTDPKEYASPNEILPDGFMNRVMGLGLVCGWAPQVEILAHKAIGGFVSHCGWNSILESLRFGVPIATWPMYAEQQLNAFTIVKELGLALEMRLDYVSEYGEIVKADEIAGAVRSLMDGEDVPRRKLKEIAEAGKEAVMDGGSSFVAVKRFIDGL

recombinant GTase A43 = molecular target: T4, recombinant GTase A43 (Arabidopsis thaliana, UniProt O23402); assay: Specific activity of recombinant GTase producing glucose ester against lignin precursors (HPLC); settings: 0.5 ml of potential substrates, 5 mM UDPG, 0.2 μg GTase, 200 μl, 20° C., 30 min
T4 construct: made in house; host or cells: E. coli

recombinant GTase A407 = molecular target: T5, recombinant GTase A407 (Arabidopsis thaliana, UniProt O81498); assay: Specific activity of recombinant GTase producing O-glucosides against lignin precursors (HPLC); settings: 30° C.; ND = not detected
T5 construct: made in house; host or cells: E. coli
T5 sequence (O81498 1-481): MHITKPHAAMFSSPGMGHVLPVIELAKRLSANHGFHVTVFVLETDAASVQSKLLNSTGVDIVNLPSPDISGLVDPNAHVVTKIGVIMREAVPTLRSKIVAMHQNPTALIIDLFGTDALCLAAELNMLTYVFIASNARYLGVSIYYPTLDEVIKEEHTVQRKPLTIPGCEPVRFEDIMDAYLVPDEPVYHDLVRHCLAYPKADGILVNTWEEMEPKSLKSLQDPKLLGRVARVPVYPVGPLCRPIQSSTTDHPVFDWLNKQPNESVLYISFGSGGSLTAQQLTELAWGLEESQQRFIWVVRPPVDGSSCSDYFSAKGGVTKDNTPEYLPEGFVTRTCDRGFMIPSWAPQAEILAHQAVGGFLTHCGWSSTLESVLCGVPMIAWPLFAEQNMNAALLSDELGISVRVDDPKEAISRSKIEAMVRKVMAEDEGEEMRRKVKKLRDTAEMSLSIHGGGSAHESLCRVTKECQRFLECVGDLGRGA

recombinant GTase A911 = molecular target: T6, recombinant GTase A911 (Arabidopsis thaliana, UniProt O22182); assay: Specific activity of recombinant GTase producing glucose ester against lignin precursors (HPLC); set-up: made in house; host or cells: E. coli; settings: 0.5 ml of potential substrates, 5 mM UDPG, 0.2 μg GTase, 200 μl, 20° C., 30 min
T6 sequence (O22182 1-456): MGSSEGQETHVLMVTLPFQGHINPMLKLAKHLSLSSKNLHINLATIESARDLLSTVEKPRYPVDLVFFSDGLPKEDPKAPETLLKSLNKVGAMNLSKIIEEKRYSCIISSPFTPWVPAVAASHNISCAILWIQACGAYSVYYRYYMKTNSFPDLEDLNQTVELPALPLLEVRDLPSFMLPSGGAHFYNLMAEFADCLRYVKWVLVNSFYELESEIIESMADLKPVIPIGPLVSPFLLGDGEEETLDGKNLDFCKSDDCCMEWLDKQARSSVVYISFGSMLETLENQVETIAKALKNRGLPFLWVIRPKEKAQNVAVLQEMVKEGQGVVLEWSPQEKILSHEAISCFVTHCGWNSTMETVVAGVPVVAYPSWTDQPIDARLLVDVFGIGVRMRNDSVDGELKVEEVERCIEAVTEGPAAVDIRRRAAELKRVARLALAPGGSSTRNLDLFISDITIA

recombinant GTase A233 = molecular target: T7, recombinant GTase A233 (Arabidopsis thaliana, UniProt Q8W491); assay: Specific activity of recombinant GTase producing O-glucosides against lignin precursors (HPLC); settings: 30° C.; ND = not detected
T7 construct: made in house; host or cells: E. coli

recombinant GTase A062 = molecular target: T8, recombinant GTase A062 (Arabidopsis thaliana, UniProt Q9LR44); assay: Specific activity of recombinant GTase producing glucose ester against lignin precursors (HPLC); settings: 0.5 ml of potential substrates, 5 mM UDPG, 0.2 μg GTase, 200 μl, 20° C., 30 min
T8 construct: made in house; host or cells: E. coli
T8 sequence (Q9LR44 1-469): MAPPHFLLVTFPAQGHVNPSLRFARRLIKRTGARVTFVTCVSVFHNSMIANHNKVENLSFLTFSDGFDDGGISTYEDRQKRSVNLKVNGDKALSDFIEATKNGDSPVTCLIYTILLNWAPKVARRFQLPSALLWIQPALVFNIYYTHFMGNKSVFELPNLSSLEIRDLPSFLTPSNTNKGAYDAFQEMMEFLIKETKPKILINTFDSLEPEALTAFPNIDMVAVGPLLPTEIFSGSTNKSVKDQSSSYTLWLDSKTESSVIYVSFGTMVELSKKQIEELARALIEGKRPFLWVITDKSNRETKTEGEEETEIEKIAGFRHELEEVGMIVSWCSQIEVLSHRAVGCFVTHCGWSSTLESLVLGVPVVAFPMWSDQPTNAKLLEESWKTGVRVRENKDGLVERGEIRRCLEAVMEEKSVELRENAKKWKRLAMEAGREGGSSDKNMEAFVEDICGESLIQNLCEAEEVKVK

recombinant GTase A961 = molecular target: T9, recombinant GTase A961 (Arabidopsis thaliana, UniProt O82381); assay: Specific activity of recombinant GTase producing O-glucosides against lignin precursors (HPLC); settings: 30° C.; ND = not detected
T9 construct: made in house; host or cells: E. coli
T9 sequence (O82381 1-481): T2 sequence (O82381 1-481)

recombinant GTase A119 = molecular target: T10, recombinant GTase A119 (Arabidopsis thaliana, UniProt Q9LVR1); assay: as above; settings: 30° C.; ND = not detected
T10 construct: made in house; host or cells: E. coli
T10 sequence (Q9LVR1 1-481): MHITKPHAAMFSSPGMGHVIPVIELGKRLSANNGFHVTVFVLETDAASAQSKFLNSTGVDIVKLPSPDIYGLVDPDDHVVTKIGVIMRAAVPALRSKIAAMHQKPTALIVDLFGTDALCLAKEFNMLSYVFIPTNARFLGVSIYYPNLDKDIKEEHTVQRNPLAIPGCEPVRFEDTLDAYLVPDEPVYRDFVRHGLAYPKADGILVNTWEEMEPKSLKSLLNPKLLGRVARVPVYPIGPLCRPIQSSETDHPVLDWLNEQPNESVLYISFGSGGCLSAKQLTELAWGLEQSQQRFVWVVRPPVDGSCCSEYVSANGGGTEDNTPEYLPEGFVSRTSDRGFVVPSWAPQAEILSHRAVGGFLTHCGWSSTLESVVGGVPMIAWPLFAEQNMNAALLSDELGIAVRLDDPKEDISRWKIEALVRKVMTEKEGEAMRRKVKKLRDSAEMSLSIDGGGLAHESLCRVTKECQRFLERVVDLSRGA

Compound | Specific activity (UGT71C1) (UGT71C1) [nkat/mg] | Specific activity of A962 (substrate converted to 4-O-glucoside) (recombinant GTase A962) [nkat/mg] | Specific activity of A961 (substrate converted to 4-O-glucoside) (recombinant GTase A961) [nkat/mg] | other results
COc1cc(/C=C/C(=O)O)cc(OC)c1O [Sinapic acid, sinapic acid] | 0 | 0.01 | 0.01 | Specific activity of A41 (substrate converted to glucose ester) (recombinant GTase A41): 5.35 nkat/mg; Specific activity of A43 (substrate converted to glucose ester) (recombinant GTase A43): 0.05 nkat/mg; Specific activity of A407 (substrate converted to 4-O-glucoside) (recombinant GTase A407): 65.39 nkat/mg; Specific activity of A911 (substrate converted to glucose ester) (recombinant GTase A911): 0.15 nkat/mg; Specific activity of A233 (substrate converted to 4-O-glucoside) (recombinant GTase A233): 0.39 nkat/mg; Specific activity of A062 (substrate converted to glucose ester) (recombinant GTase A062): 0.1 nkat/mg
COc1cc(/C=C/CO)ccc1O [Coniferyl alcohol, coniferyl alcohol] |  | 0.49 | 0.57 | Specific activity of A407 (substrate converted to 4-O-glucoside) (recombinant GTase A407): 2.78 nkat/mg; Specific activity of A233 (substrate converted to 4-O-glucoside) (recombinant GTase A233): 0.46 nkat/mg
COc1cc(/C=C/C=O)cc(OC)c1O [sinapyl aldehyde] |  | 0.50 | 0.57 | Specific activity of A119 (substrate converted to 4-O-glucoside) (recombinant GTase A119): 4.55 nkat/mg
O=C/C=C/c1ccc(O)cc1 [p-coumaryl aldehyde] |  | 0.02 | 0.01 | Specific activity of A119 (substrate converted to 4-O-glucoside) (recombinant GTase A119): 0.03 nkat/mg
Catechin | 0 |  |  | 
COc1cc2ccc(=O)oc2cc1O [Scopoletin] | 29.4 ± 3.9 |  |  | 
O=C(O)c1ccc(O)cc1 [4-hydroxybenzoic acid] | 0 |  |  | 
COc1cc(/C=C/CO)cc(OC)c1O [sinapyl alcohol] |  | 0.45 | 0.35 | Specific activity of A119 (substrate converted to 4-O-glucoside) (recombinant GTase A119): 126.16 nkat/mg; Specific activity of A407 (substrate converted to 4-O-glucoside) (recombinant GTase A407): 114.76 nkat/mg; Specific activity of A233 (substrate converted to 4-O-glucoside) (recombinant GTase A233): 0.05 nkat/mg
O=C1C[C@@H](c2ccc(O)c(O)c2)Oc2cc(O)cc(O)c21 [Eriodictyol] | 0 |  |  | 
O=C(O)/C=C/c1ccccc1O [o-Coumaric acid] | 1.5 ± 0.2 |  |  | 
O=c1ccc2cc(O)c(O)cc2o1 [Esculetin] | 34.8 ± 4.2 |  |  | 
O=c1c(O)c(-c2ccc(O)c(O)c2)oc2cc(O)cc(O)c12 [Quercetin] | 1.4 ± 0.4 |  |  | 
COc1cc(/C=C/C=O)ccc1O [Coniferyl aldehyde, coniferyl aldehyde] |  | 0.34 | 0.16 | Specific activity of A119 (substrate converted to 4-O-glucoside) (recombinant GTase A119): 1.08 nkat/mg
O=C(O)/C=C/c1cccc(O)c1 [m-Coumaric acid] | 1.2 ± 0.2 |  |  | 
O=C(O)c1ccc(O)c(O)c1 [3,4-dihydroxybenzoic acid] | 0 |  |  | 
O=c1cc(-c2ccc(O)c(O)c2)oc2cc(O)cc(O)c12 [Luteolin] | 0.7 ± 0.1 |  |  | 
